The source of these data is patent US20200164005A1, “PHARMACEUTICAL COMPOSITIONS OF A BILE ACID DERIVATIVE AND MICROBIOME AND USES THEREOF” (Intercept Pharmaceuticals, Inc., priority 2017, published 2020).

Data set [1] has as its system C4 (7α-hydroxy-4-cholesten-3-one). The data set can be described thus: Plasma C4 level after OCA and its association with microbiome species (GEE). In kind it is in vivo, human. The method, then:
C4 level was measured on 5 mg and 10 mg OCA dose groups. The day 1 pre-dose C4 was used as a match of day 1 microbiome measurement. The average level of C4 from day 4 to day 17 pre-dose was calculated as a match of day 15 or 16 microbiome measurement. The average C4 level on day 30 and day 44 was used as a match of microbiome on day 37. The average of multiple time points was taken to match the three time points of microbiome measurements.
Geeglm(fgf19·log 2˜hour+dose+hour:dose, id=sID, corstr=“exchangeable”) • C4 analysis: The GEE model was applied in association study of C4 and microbiome species. Both C4 and species relative abundance were log 2 transformed before applying GEE model.
Geeglm(species·log 2˜C4·log 2, id=sID, corstr=“exchangeable”)
Twenty-four healthy subjects were randomly assigned to one of three dose groups (5 mg, 10 mg, or 25 mg OCA per day), with each dose group comprising eight subjects (four women and four men). A single oral OCA dose of 5 mg, 10 mg, or 25 mg tablets, depending on the treatment assignment, was administered on Day 1. In the multiple-dose phase, a single oral OCA dose of 5 mg, 10 mg, or 25 mg tablets, in accordance with the assigned treatment, was administered orally once daily for 14 days from Days 4-17. The patients remained at the study site until Day 30, and were followed up until the final visit on Day 44 (FIG. 62A). Fecal specimens were collected at baseline (Day 0), at the end of the multiple-dose phase (Day 17), and at the end of the study (Day 37). Pharmacokinetic blood samples were assessed pre-dose and on Days 1-3, 17, 35, 37, 39, and 44. […] Therefore, plasma C4 levels are a reliable dynamic indicator of the host response to FXR activation by OCA, that leads to the suppression of endogenous bile acid synthesis (Hirschfield et al., Gastroenterology 148, 751-761 e758 (2015); Mudaliar et al., Gastroenterology 145, 574-582 e571 (2013)).

For data set [2], the system named is Lactococcus lactis, Streptococcus thermophilus, and Lactobacillus casei/paracasei. Description: Minimal inhibitory concentrations (MIC) of bile acids and OCA, aerobic and anaerobic. Type of data set: cell-based. An excerpt: FIGS. 58A-58B: Minimal inhibitory concentrations (MICs) of selected Gram-positive bacterial species in response treatment with two endogenous bile acids and OCA. […] N=3 per measurement. […] N=3 per measurement.
a (Begley et al., FEMS Microbiol Rev. 29, 625-651 (2005)), and conducted genomic analysis is consistent with the notion that specific Gram-positive taxa become proportionally more abundant during OCA administration due to enhanced proliferation. FXR-dependent inhibition of endogenous bile acid synthesis by OCA may reduce the growth inhibitory effects on Gram-positive bacterial species that are normally sensitive to bile acids. To determine if the three bacterial species with the greatest representation of pathways associated with OCA (FIG. 57A) are sensitive to bile acids, the species-specific minimal inhibitory concentrations (MIC) of the two most predominant bile acids in the human small intestine, glycochenodeoxycholic acid (GCDCA) and glycocholic acid (GCA) were determined (FIG. 58A). Since the environment of the small intestinal lumen may transition from an aerobic to anaerobic state along its length (He et al., Proceedings of the National Academy of Sciences of the United States of America, 96, 4586-4591 (1999)), MICs were determined under both aerobic and anaerobic conditions. […] Consistent with this notion, it has been shown that bile salt hydrolases (BSH), enzymes that are unique to bacteria resident in the mammalian gut where they can enhance bile acid tolerance (Begley et al., FEMS Microbiol Rev. 29, 625-651 (2005)), are missing from the genome of S. thermophilus, which is induced by OCA. It can be supported by showing that these species are sensitive to growth inhibition in vitro when exposed to physiologically-relevant concentrations of conjugated bile acids found in the small intestine. […] Since OCA is a bile acid analogue possibly capable of inhibiting bacterial growth, the MICs of OCA for the same bacterial species were determined (FIG. 58B). […] These findings support the notion that OCA treatment leads to the increased growth of bile acid sensitive bacterial taxa by suppressing endogenous bile acid synthesis.

Data set [3] in a line: Calculated small intestinal luminal concentration of OCA. On the set-up: species or system human.
For data set [4] the following is noted: 10 mg/day dose; cited from earlier work.

On to `CC[C@H]1[C@@H](O)[C@@H]2[C@H](CC[C@]3(C)[C@@H]([C@H](C)CCC(=O)O)CC[C@@H]23)[C@@]2(C)CC[C@@H](O)C[C@@H]12` [OCA, 3α,7α-dihydroxy-6α-ethyl-5β-cholan-24-oic acid], for which the “plasma levels of C4 relative to Day 0 (pre-OCA dose)” value in data set [1] (Day 16) is given as “maximally suppressed”. In data set [1] (Day 37), the “plasma levels of C4 at maximal time off OCA” value was “returned to normal”. Besides, the “plasma C4 in response to OCA treatment” value in data set [1] (serial quantification, repeated measure ANOVA) is on record as “time-dependent reduction”. For the same compound, the “inhibition of growth of the three bacterial species (MIC determination)” value in data set [2] is on record as “able to inhibit growth of all three bacterial species”. Moreover, the “inhibition of growth at OCA concentrations calculated to be reached in the human small intestine” value in data set [2] (˜40 mM at a 10 mg/day dose) was “minimal to no inhibition of growth”. In data set [3], the “calculated physiologic level that would be encountered in the human small intestine” value was “approximately 12 micromolar”. In addition, the OCA concentration calculated to be reached in the human small intestine in data set [4] was about 40 µM.
